Reference: patent US20230233569A1 (Revolution Medicines, Inc., priority 2020, published 2023)

Tests used:
NCI-H358 (K-Ras G12C) = experiment: CellTiter-Glo cell viability assay, 5-day treatment; type: cell-based; conditions: Homo sapiens, NCI-H358, 120 h, 5-day treatment; read-out: H358 Cell Viability assay data (K-Ras G12C, IC50)
In short: (§1)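 Viability is read as luminescence on day 5 after direct compound addition to plated cells, following about 30 minutes' room-temperature equilibration. Each signal is scaled to mean DMSO as 100%.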

Capan-1 (K-Ras G12V) = experiment: as above; type: cell-based; conditions: Homo sapiens, CAPAN-1, 120 h, 5-day treatment; read-out: Capan-1 Cell Viability assay data (K-Ras G12V, IC50)
In short: as §1

NRAS Q61K = NRAS Q61K (Homo sapiens, UniProt P01111+P62937, Q61K); experiment: Disruption of BRAF RBD interaction with Ras (FRET / MOA assay, with Cyclophilin A); type: biochemical; conditions: NRAS Q61K; read-out: NRAS Q61K FRET data IC50
In short: (§2)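 IC50 reflects compound-driven Ras:Cyclophilin A ternary complex displacing BRAF RBD, read as lowered TR-FRET ratio relative to DMSO after Eu anti-His (10 nM) and APC anti-GST (50 nM) detection for 1.5 h. Prior incubation 3 h, 25° C, with 12.5 nM GMPPNP-loaded Ras, 50 nM BRAF RBD, 25 μM Cyclophilin A; top compound 30 μM.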

NRAS Q61R = NRAS Q61R (Homo sapiens, UniProt P01111+P62937, Q61R); experiment: as above; type: biochemical; conditions: NRAS Q61R; read-out: NRAS Q61R FRET data IC50
In short: as §2

NRAS WT = NRAS WT (Homo sapiens, UniProt P01111+P62937); experiment: as above; type: biochemical; conditions: NRAS WT; read-out: NRAS WT FRET data IC50
In short: as §2

KRAS Q61H = KRAS Q61H (Homo sapiens, UniProt P01116+P62937, Q61H); experiment: as above; type: biochemical; conditions: KRAS Q61H; read-out: KRAS Q61H FRET data IC50
In short: as §2

NRAS G12C = NRAS G12C (Homo sapiens, UniProt P01111+P62937, G12C); experiment: as above; type: biochemical; conditions: NRAS G12C; read-out: NRAS G12C FRET data IC50
KRAS G13C = KRAS G13C (Homo sapiens, UniProt P01116+P62937, G13C); experiment: as above; type: biochemical; conditions: read-out: KRAS G13C FRET data, IC50
In short: (§3)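 Measured via TR-FRET after 3 h at 25 °C with compound (30 μM top, threefold serial steps, ten concentrations) plus K-Ras, Cyclophilin A and BRAF RBD, followed by 1.5 h with anti-His europium (10 nM) and anti-GST allophycocyanin (50 nM). Signal loss versus DMSO gave IC50.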

KRAS G12S = KRAS G12S (Homo sapiens, UniProt P01116+P62937, G12S); experiment: as above; type: biochemical; conditions: read-out: KRAS G12S FRET data, IC50
In short: as §3

KRAS WT = KRAS WT (Homo sapiens, UniProt P01116+P62937); experiment: as above; type: biochemical; conditions: KRAS WT; read-out: KRAS WT FRET data IC50
In short: as §3

KRAS G13D = KRAS G13D (Homo sapiens, UniProt P01116+P62937, G13D); experiment: as above; type: biochemical; conditions: KRAS G13D; read-out: KRAS G13D FRET data IC50
In short: as §3

KRAS G12D = KRAS G12D (Homo sapiens, UniProt P01116+P62937, G12D); experiment: as above; type: biochemical; conditions: read-out: KRAS G12D FRET data, IC50
In short: as §3

KRAS G12C = KRAS G12C (Homo sapiens, UniProt P01116+P62937, G12C); experiment: as above; type: biochemical; conditions: read-out: KRAS G12C FRET data, IC50
In short: as §3

KRAS G12V = KRAS G12V (Homo sapiens, UniProt P01116+P62937, G12V); experiment: as above; type: biochemical; conditions: KRAS G12V; read-out: KRAS G12V FRET data IC50
In short: as §3

KRAS G12D, sequence (P01116 1-169 isoform P01116-2 G12D limits assumed): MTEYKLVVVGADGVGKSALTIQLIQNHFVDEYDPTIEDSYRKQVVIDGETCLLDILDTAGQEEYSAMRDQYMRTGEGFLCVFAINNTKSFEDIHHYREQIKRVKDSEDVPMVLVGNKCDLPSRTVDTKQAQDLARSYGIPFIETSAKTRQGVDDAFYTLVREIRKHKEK
KRAS G12D, sequence (P62937 whole entry): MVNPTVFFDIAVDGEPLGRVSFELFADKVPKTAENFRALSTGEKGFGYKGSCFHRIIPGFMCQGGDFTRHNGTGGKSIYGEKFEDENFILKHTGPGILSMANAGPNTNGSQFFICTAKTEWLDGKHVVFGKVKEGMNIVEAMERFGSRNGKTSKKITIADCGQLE
KRAS G12C, sequence (P01116 1-169 isoform P01116-2 G12C): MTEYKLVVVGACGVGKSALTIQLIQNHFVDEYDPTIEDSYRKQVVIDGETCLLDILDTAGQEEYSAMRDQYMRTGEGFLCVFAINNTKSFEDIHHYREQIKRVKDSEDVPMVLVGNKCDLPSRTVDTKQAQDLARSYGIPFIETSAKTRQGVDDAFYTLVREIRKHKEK
KRAS G12C, sequence (P62937 whole entry): as the sequence (P62937 whole entry) above
KRAS WT, sequence (P01116 1-169 isoform P01116-2 limits assumed): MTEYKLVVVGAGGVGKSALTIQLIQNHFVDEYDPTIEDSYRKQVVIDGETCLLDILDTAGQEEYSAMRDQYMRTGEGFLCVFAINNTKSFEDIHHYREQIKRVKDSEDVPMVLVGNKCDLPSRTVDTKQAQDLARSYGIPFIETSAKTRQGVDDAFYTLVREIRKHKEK
KRAS WT, sequence (P62937 whole entry): as the sequence (P62937 whole entry) above
KRAS G13D, sequence (P01116 1-169 isoform P01116-2 G13D limits assumed): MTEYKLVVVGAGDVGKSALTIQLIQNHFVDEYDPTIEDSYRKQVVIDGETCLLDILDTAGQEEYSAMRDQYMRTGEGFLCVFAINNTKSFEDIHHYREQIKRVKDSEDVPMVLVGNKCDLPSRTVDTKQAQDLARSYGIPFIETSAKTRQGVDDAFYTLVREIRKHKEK
KRAS G13D, sequence (P62937 whole entry): as the sequence (P62937 whole entry) above
KRAS G12V, sequence (P01116 1-169 isoform P01116-2 G12V limits assumed): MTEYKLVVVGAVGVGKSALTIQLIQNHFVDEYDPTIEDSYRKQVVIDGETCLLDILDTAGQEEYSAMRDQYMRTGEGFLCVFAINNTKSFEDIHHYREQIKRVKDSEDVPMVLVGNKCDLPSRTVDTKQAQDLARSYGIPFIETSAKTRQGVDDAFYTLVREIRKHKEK
KRAS G12V, sequence (P62937 whole entry): as the sequence (P62937 whole entry) above
KRAS G13C, sequence (P01116 1-169 isoform P01116-2 G13C): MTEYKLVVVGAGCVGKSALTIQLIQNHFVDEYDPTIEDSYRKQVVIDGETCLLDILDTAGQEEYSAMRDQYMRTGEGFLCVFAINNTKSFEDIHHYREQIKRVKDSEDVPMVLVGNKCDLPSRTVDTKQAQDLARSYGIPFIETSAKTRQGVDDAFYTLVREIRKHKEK
KRAS G13C, sequence (P62937 whole entry): as the sequence (P62937 whole entry) above
NRAS G12C, sequence (P01111 whole entry G12C): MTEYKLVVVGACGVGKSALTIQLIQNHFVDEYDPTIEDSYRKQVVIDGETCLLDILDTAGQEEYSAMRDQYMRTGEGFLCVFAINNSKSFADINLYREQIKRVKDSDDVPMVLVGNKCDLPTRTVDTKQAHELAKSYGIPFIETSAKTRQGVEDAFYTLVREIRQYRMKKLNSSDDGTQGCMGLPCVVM
NRAS G12C, sequence (P62937 whole entry): as the sequence (P62937 whole entry) above
KRAS G12S, sequence (P01116 1-169 isoform P01116-2 G12S limits assumed): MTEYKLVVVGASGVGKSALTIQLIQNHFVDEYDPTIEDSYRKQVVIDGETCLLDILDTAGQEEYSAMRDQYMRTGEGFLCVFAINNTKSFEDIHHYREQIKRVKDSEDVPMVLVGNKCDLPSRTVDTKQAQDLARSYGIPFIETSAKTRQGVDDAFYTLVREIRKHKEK
KRAS G12S, sequence (P62937 whole entry): as the sequence (P62937 whole entry) above
NRAS WT, sequence (P01111 whole entry): as the sequence (P01111 whole entry G12C) above, with C12G counted along it
NRAS WT, sequence (P62937 whole entry): as the sequence (P62937 whole entry) above
NRAS Q61R, sequence (P01111 whole entry Q61R): as the sequence (P01111 whole entry G12C) above, with C12G, Q61R counted along it
NRAS Q61R, sequence (P62937 whole entry): as the sequence (P62937 whole entry) above
KRAS Q61H, sequence (P01116 1-169 isoform P01116-2 Q61H limits assumed): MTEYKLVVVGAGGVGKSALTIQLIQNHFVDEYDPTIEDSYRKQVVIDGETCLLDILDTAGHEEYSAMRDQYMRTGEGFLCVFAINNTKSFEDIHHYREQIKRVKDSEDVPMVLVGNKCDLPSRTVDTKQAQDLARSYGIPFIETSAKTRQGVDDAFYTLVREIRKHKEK
KRAS Q61H, sequence (P62937 whole entry): as the sequence (P62937 whole entry) above
NRAS Q61K, sequence (P01111 whole entry Q61K): as the sequence (P01111 whole entry G12C) above, with C12G, Q61K counted along it
NRAS Q61K, sequence (P62937 whole entry): as the sequence (P62937 whole entry) above

Compound | IC50 (NCI-H358 (K-Ras G12C)) | IC50 (Capan-1 (K-Ras G12V)) | IC50 (NRAS Q61K) | IC50 (NRAS Q61R) | IC50 (NRAS WT) | IC50 (KRAS Q61H) | IC50 (NRAS G12C) | IC50 (KRAS G13C) | IC50 (KRAS G12S) | IC50 (KRAS WT) | IC50 (KRAS G13D) | IC50 (KRAS G12D) | IC50 (KRAS G12C) | IC50 (KRAS G12V)
CCn1c(-c2cc(C3CCN(C)CC3)cnc2[C@H](C)OC)c2c3cc(ccc31)-c1csc(n1)C[C@H](NC(=O)[C@H](C(C)C)N(C)C(=O)N(C)C)C(=O)N1CCC[C@H](N1)C(=O)OCC(C)(C)C2 (atropisomer, axis not shown) [Example A484] | < 10 nM | < 10 nM | 10 to 100 nM | 100 to 1000 nM | 10 to 100 nM | 10 to 100 nM | 10 to 100 nM | 100 to 1000 nM | 100 to 1000 nM | 100 to 1000 nM | 100 to 1000 nM | 100 to 1000 nM | 10 to 100 nM | 100 to 1000 nM
CCn1c(-c2cccnc2[C@H](C)OC)c2c3cc(ccc31)-c1csc(n1)C[C@H](NC(=O)[C@H](C(C)C)N(C)C(=O)N1CC3(CC(N4CCOCC4)C3)C1)C(=O)N1CCC[C@H](N1)C(=O)OCC(C)(C)C2 (atropisomer, axis not shown) [Example A486] | 10 to 100 nM | 10 to 100 nM | 10 to 100 nM | 100 to 1000 nM | 100 to 1000 nM | 100 to 1000 nM | 100 to 1000 nM | 100 to 1000 nM | 100 to 1000 nM | 100 to 1000 nM | 100 to 1000 nM | 1000 to 10000 nM | 100 to 1000 nM | 100 to 1000 nM
CCn1c(-c2cccnc2[C@H](C)OC)c2c3cc(ccc31)-c1csc(n1)C[C@H](NC(=O)[C@H](C(C)C)N(C)C(=O)N1CC([C@@H](C)NC)C1)C(=O)N1CCC[C@H](N1)C(=O)OCC(C)(C)C2 (atropisomer, axis not shown) [Example A488] | 10 to 100 nM | 100 to 1000 nM | 10 to 100 nM | 100 to 1000 nM | 100 to 1000 nM | 10 to 100 nM | 10 to 100 nM | 100 to 1000 nM | 100 to 1000 nM | 100 to 1000 nM | 100 to 1000 nM | 100 to 1000 nM | 10 to 100 nM | 100 to 1000 nM
CCn1c(-c2cccnc2[C@H](C)OC)c2c3cc(ccc31)-c1csc(n1)[C@@H](O)[C@H](NC(=O)[C@H](C(C)C)N(C)C(=O)N1CC(N(C)C)C1)C(=O)N1CCC[C@H](N1)C(=O)OCC(C)(C)C2 (atropisomer, axis not shown) [Example A489] | 10 to 100 nM | 100 to 1000 nM | 10 to 100 nM | 100 to 1000 nM | 100 to 1000 nM | 100 to 1000 nM | 10 to 100 nM | 100 to 1000 nM | 100 to 1000 nM | 100 to 1000 nM | 100 to 1000 nM | 1000 to 10000 nM | 10 to 100 nM | 100 to 1000 nM
CCn1c(-c2cccnc2[C@H](C)OC)c2c3cc(ccc31)-c1csc(n1)C[C@H](NC(=O)[C@H](C(C)C)N(C)C(=O)N1CCC3(CN(C)C3)C1)C(=O)N1CCC[C@H](N1)C(=O)OCC(C)(C)C2 (atropisomer, axis not shown) [Example A503] | 10 to 100 nM | 10 to 100 nM | 10 to 100 nM | 10 to 100 nM | 10 to 100 nM | 10 to 100 nM | 10 to 100 nM | 100 to 1000 nM | 10 to 100 nM | 10 to 100 nM | 100 to 1000 nM | 100 to 1000 nM | 10 to 100 nM | 100 to 1000 nM
CCn1c(-c2cc(C3CCN(C)CC3)cnc2[C@H](C)OC)c2c3cc(ccc31)-c1csc(n1)C[C@H](NC(=O)[C@H](C(C)C)N(C)C(=O)N1CCOCC1)C(=O)N1CCC[C@H](N1)C(=O)OCC(C)(C)C2 (atropisomer, axis not shown) [Example A505] | < 10 nM | < 10 nM | 10 to 100 nM | 10 to 100 nM | 10 to 100 nM | 10 to 100 nM | 10 to 100 nM | 100 to 1000 nM | 100 to 1000 nM | 10 to 100 nM | 100 to 1000 nM | 100 to 1000 nM | 10 to 100 nM | 100 to 1000 nM
CCn1c(-c2cccnc2[C@H](C)OC)c2c3cc(ccc31)-c1csc(n1)C[C@H](NC(=O)[C@H](C(C)C)N(C)C(=O)N1CC3(CC(O)C3)C1)C(=O)N1CCC[C@H](N1)C(=O)OCC(C)(C)C2 (atropisomer, axis not shown) [Example A510] | 10 to 100 nM | 10 to 100 nM | 10 to 100 nM | 100 to 1000 nM | 100 to 1000 nM | 10 to 100 nM | 10 to 100 nM | 100 to 1000 nM | 100 to 1000 nM | 100 to 1000 nM | 100 to 1000 nM | 1000 to 10000 nM | 10 to 100 nM | 100 to 1000 nM
CCn1c(-c2cccnc2[C@H](C)OC)c2c3cc(ccc31)-c1csc(n1)C[C@H](NC(=O)[C@H](C(C)C)N(C)C(=O)N1CCCC13CCOCC3)C(=O)N1CCC[C@H](N1)C(=O)OCC(C)(C)C2 (atropisomer, axis not shown) [Example A520] | 10 to 100 nM | 10 to 100 nM | 10 to 100 nM | 10 to 100 nM | 100 to 1000 nM | 10 to 100 nM | 100 to 1000 nM | 100 to 1000 nM | 100 to 1000 nM | 100 to 1000 nM | 100 to 1000 nM | 100 to 1000 nM | 100 to 1000 nM | 100 to 1000 nM
CCn1c(-c2cccnc2[C@H](C)OC)c2c3cc(ccc31)-c1csc(n1)C[C@H](NC(=O)[C@H](C(C)C)N(C)C(=O)N1CC3(CCCO3)C1)C(=O)N1CCC[C@H](N1)C(=O)OCC(C)(C)C2 (atropisomer, axis not shown) [Example A522] | 10 to 100 nM | 100 to 1000 nM | 10 to 100 nM | 100 to 1000 nM | 100 to 1000 nM | 100 to 1000 nM | 100 to 1000 nM | 100 to 1000 nM | 100 to 1000 nM | 100 to 1000 nM | 1000 to 10000 nM | 1000 to 10000 nM | 100 to 1000 nM | 100 to 1000 nM
CCn1c(-c2cccnc2[C@H](C)OC)c2c3cc(ccc31)-c1csc(n1)C[C@H](NC(=O)[C@H](C(C)C)N(C)C(=O)N1CC3(CC3)C1)C(=O)N1CCC[C@H](N1)C(=O)OCC(C)(C)C2 (atropisomer, axis not shown) [Example A523] | 10 to 100 nM | 10 to 100 nM | 10 to 100 nM | 100 to 1000 nM | 100 to 1000 nM | 10 to 100 nM | 10 to 100 nM | 100 to 1000 nM | 100 to 1000 nM | 100 to 1000 nM | 100 to 1000 nM | 100 to 1000 nM | 10 to 100 nM | 100 to 1000 nM
CCn1c(-c2cc(N3CCN(C)CC3)cnc2[C@H](C)OC)c2c3cc(ccc31)-c1csc(n1)C[C@H](NC(=O)[C@H](C1CCCC1)N(C)C(=O)N(C)C)C(=O)N1CCC[C@H](N1)C(=O)OCC(C)(C)C2 (atropisomer, axis not shown) [Example A526] | < 10 nM | < 10 nM | 10 to 100 nM | 10 to 100 nM | 10 to 100 nM | 10 to 100 nM | 10 to 100 nM | 10 to 100 nM | 10 to 100 nM | 10 to 100 nM | 100 to 1000 nM | 100 to 1000 nM | 10 to 100 nM | 10 to 100 nM
